Laboratory results reported in ChEMBL document CHEMBL1141004, “N-((8-hydroxy-5-substituted-quinolin-7-yl)(phenyl)methyl)-2-phenyloxy/amino-acetamide inhibitors of ADAMTS-5 (Aggrecanase-2)” (Bioorg Med Chem Lett, 2008).

What was measured:
[1] = Metabolic stability in rat liver microsomes assessed as half life; assay type: ADME, Microsome
Cytochrome P450 3A4 = Cytochrome P450 3A4 (Homo sapiens, UniProt P08684); assay: Inhibition of CYP3A4 at 30 uM by FRET assay; assay type: ADME
[2] = molecular target: T1, A disintegrin and metalloproteinase with thrombospondin motifs 4 (Homo sapiens, UniProt O75173); assay: Inhibition of ADAMTS4 by FRET assay
T1 sequence (O75173 whole entry): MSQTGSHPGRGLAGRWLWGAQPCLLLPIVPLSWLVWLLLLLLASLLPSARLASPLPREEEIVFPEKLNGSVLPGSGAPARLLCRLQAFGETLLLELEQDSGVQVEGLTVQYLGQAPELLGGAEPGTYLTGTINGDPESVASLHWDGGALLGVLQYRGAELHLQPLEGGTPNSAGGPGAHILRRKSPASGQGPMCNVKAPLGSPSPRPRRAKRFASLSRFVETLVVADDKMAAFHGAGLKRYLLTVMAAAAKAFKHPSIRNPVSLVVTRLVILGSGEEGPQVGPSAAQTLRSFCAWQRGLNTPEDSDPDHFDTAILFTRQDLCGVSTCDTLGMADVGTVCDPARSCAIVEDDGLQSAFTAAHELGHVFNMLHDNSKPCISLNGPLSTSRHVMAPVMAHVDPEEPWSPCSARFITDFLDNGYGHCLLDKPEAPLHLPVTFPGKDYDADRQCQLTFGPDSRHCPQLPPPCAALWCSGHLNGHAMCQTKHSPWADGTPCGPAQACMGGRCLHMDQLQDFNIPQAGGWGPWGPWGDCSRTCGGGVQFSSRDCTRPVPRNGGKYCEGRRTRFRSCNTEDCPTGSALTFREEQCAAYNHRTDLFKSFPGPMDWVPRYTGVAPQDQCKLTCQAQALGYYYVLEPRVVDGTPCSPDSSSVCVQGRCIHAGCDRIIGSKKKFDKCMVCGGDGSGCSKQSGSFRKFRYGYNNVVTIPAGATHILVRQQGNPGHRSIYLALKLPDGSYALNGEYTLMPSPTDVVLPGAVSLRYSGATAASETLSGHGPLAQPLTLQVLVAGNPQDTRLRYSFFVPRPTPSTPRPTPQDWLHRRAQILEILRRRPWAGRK

Collagenase 3 = Collagenase 3 (Homo sapiens, UniProt P45452); assay: Inhibition of MMP13 by FRET assay
[3] = molecular target: Macrophage metalloelastase (Homo sapiens) (UniProt P39900); assay: Inhibition of MMP12 at […] by FRET assay
Chain of Macrophage metalloelastase (Homo sapiens) (P39900 106-470 limits assumed): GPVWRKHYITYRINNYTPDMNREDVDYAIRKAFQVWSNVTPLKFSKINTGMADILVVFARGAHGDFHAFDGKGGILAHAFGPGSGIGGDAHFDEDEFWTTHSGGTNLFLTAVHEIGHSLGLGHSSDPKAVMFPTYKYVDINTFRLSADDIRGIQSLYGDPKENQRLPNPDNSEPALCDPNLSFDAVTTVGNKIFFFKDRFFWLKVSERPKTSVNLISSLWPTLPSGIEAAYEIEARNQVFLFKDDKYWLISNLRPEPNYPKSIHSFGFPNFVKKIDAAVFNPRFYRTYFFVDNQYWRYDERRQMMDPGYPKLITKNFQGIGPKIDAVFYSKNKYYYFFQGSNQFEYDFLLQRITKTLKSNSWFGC

Chain of Cytochrome P450 3A4 (P08684 whole entry): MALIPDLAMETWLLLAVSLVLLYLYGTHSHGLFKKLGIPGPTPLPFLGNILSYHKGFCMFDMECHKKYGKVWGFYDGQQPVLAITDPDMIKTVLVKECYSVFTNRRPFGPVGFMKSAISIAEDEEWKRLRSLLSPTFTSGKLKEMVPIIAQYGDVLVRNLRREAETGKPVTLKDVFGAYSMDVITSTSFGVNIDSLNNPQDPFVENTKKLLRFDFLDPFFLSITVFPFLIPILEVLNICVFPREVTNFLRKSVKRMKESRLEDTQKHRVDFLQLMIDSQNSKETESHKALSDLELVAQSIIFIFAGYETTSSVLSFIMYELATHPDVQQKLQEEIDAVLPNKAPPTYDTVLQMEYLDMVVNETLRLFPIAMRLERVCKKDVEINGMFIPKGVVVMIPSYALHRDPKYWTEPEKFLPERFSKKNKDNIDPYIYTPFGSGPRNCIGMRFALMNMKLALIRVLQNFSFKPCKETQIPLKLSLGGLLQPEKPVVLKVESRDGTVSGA

Structure (SMILES) | inhibition (INH) (Cytochrome P450 3A4) [%] | also measured
CC(C)(C)c1ccc(OCC(=O)NC(c2ccccc2Cl)c2cc(Cl)c3cccnc3c2O)cc1 (configuration not stated) | 10 | 
COc1ccc(C(NC(=O)COc2ccccc2)c2cc(Cl)c3cccnc3c2O)cc1 (configuration not stated) | 54 | 
O=C(COc1ccccc1)NC(c1ccccc1)c1ccc2cccnc2c1O (configuration not stated) | 56 | 
Cc1ccc(C(NC(=O)CNc2ccc(C#N)cc2)c2cc(Cl)c3cccnc3c2O)cc1 (configuration not stated) | 29 | 
O=C(COc1ccc(Cl)cc1)NC(c1ccccc1)c1cc(Cl)c2cccnc2c1O (configuration not stated) | 2 | 
Cc1ccc(C(NC(=O)COCc2ccccc2)c2cc(Cl)c3cccnc3c2O)cc1 (configuration not stated) | 45 | 
O=C(COc1ccccc1)NC(c1ccc([N+](=O)[O-])cc1)c1cc(Cl)c2cccnc2c1O (configuration not stated) | 13 | 
CC(=O)Nc1ccc(OCC(=O)NC(c2cccc(F)c2)c2cc(Cl)c3cccnc3c2O)cc1 (configuration not stated) | 31 | 
O=C(COc1ccccc1)NC(c1ccccc1)c1cc(Cl)c2cccnc2c1O (configuration not stated) | 5 | 
COc1ccc(C(NC(=O)COc2ccc(C)cc2)c2cc(Cl)c3cccnc3c2O)cc1 (configuration not stated) | 78 | 
O=C(COc1ccccc1)NC(c1cccc([N+](=O)[O-])c1)c1cc(Cl)c2cccnc2c1O (configuration not stated) | 26 | half-life [1]: 6 min; IC50 [2]: 1.9 µM; IC50 (Collagenase 3): > 200 µM; inhibition [3]: 45%
CC(=O)Nc1ccc(NCC(=O)NC(c2cccc([N+](=O)[O-])c2)c2cc(Cl)c3cccnc3c2O)cc1 (configuration not stated) | 8 | half-life [1]: 30 min
COc1ccc(C(NC(=O)COc2cccnc2)c2cc(Cl)c3cccnc3c2O)cc1 (configuration not stated) | 33 | half-life [1]: 16 min
COc1ccc(C(NC(=O)COc2ccc(NC(C)=O)cc2)c2cc(Cl)c3cccnc3c2O)cc1 (configuration not stated) | 37 | 
O=C(COc1ccccc1)NC(c1ccccc1)c1cc(F)c2cccnc2c1O (configuration not stated) | 22 | 
O=C(COc1ccccc1)NC(c1cccc(F)c1)c1cc(Cl)c2cccnc2c1O (configuration not stated) | 57 | 
CN(C)c1cccc(OCC(=O)NC(c2cccc(F)c2)c2cc(Cl)c3cccnc3c2O)c1 (configuration not stated) | 53 | 
Cc1ccc(C(NC(=O)CNCc2ccccc2)c2cc(Cl)c3cccnc3c2O)cc1 (configuration not stated) | 29 | half-life [1]: 10 min
O=C(COc1cccnc1)NC(c1cccc([N+](=O)[O-])c1)c1cc(Cl)c2cccnc2c1O (configuration not stated) | 67 | 
Cc1ccc(C(NC(=O)COc2ccccc2)c2cc(Cl)c3cccnc3c2O)cc1 (configuration not stated) | 45 | 

Structure (SMILES) | inhibition (INH) (Cytochrome P450 3A4) [%] | also measured
Cc1cc(C(NC(=O)COc2ccccc2)c2cccc([N+](=O)[O-])c2)c(O)c2ncccc12 (configuration not stated) | 33 | half-life [1]: 6 min
Cc1cc(NCC(=O)NC(c2cccc([N+](=O)[O-])c2)c2cc(Cl)c3cccnc3c2O)ccc1Cl (configuration not stated) | 17 | 
CC(=O)c1ccc(NCC(=O)NC(c2cccc([N+](=O)[O-])c2)c2cc(Cl)c3cccnc3c2O)cc1 (configuration not stated) | 27 | 
Cc1ccc(C(NC(=O)CNc2cccc(N(C)C)c2)c2cc(Cl)c3cccnc3c2O)cc1 (configuration not stated) | 37 | 
CC(=O)c1ccc(OCC(=O)NC(c2cccc([N+](=O)[O-])c2)c2cc(Cl)c3cccnc3c2O)cc1 (configuration not stated) | 18 | 
O=C(COc1ccccc1)NC(c1ccc(Cl)cc1)c1cc(Cl)c2cccnc2c1O (configuration not stated) | 38 | 
O=C(COc1ccccc1)NC(c1cccc([N+](=O)[O-])c1)c1cc(Br)c2cccnc2c1O (configuration not stated) | 38 | 
Cc1ccc(OCC(=O)NC(c2ccccc2)c2cc(Cl)c3cccnc3c2O)cc1 (configuration not stated) | 69 | 
COc1ccc(C(NC(=O)COc2cccc(N(C)C)c2)c2cc(Cl)c3cccnc3c2O)cc1 (configuration not stated) | 56 | 
Cc1ccc(C(NC(=O)CNc2ccc(Cl)c(C)c2)c2cc(Cl)c3cccnc3c2O)cc1 (configuration not stated) | 12 | 
O=C(COc1ccccc1)NC(c1ccccc1C(F)(F)F)c1cc(Cl)c2cccnc2c1O (configuration not stated) | 37 | 
Cc1cc(NCC(=O)NC(c2cccc(F)c2)c2cc(Cl)c3cccnc3c2O)ccc1Cl (configuration not stated) | 14 | 
O=C(COc1cc(Cl)cc(Cl)c1)NC(c1cccc([N+](=O)[O-])c1)c1cc(Cl)c2cccnc2c1O (configuration not stated) | 20 | 
Cc1cc(OCC(=O)NC(c2ccccc2Cl)c2cc(Cl)c3cccnc3c2O)ccc1Cl (configuration not stated) | 30 | 
COc1ccc(C(NC(=O)COc2ccc(Oc3ccccc3)cc2)c2cc(Cl)c3cccnc3c2O)cc1 (configuration not stated) | 21 | 
COc1ccc(OCC(=O)NC(c2ccc(OC)cc2)c2cc(Cl)c3cccnc3c2O)cc1 (configuration not stated) | 74 | IC50 [2]: > 50 µM; IC50 (Collagenase 3): > 200 µM; inhibition [3]: 37%
CC(=O)c1ccc(NCC(=O)NC(c2ccc(C)cc2)c2cc(Cl)c3cccnc3c2O)cc1 (configuration not stated) | 45 | half-life [1]: 4 min
O=C(COc1cccnc1)NC(c1cccc(F)c1)c1cc(Cl)c2cccnc2c1O (configuration not stated) | 35 | 
O=C(COc1ccccc1)NC(c1ccccc1)c1cc([N+](=O)[O-])c2cccnc2c1O (configuration not stated) | 20 | 
CC(=O)Nc1ccc(OCC(=O)NC(c2ccccc2Cl)c2cc(Cl)c3cccnc3c2O)cc1 (configuration not stated) | 4 | 

The next lines start with results.

inhibition (INH) (Cytochrome P450 3A4) [%] | Structure (SMILES) | also measured
11 | Cc1cc(NCC(=O)NC(c2ccccc2Cl)c2cc(Cl)c3cccnc3c2O)ccc1Cl (configuration not stated) | half-life [1]: 8 min
38 | CN(C)c1cccc(OCC(=O)NC(c2ccccc2Cl)c2cc(Cl)c3cccnc3c2O)c1 (configuration not stated) | 
34 | CN(CC(=O)NC(c1ccccc1Cl)c1cc(Cl)c2cccnc2c1O)c1ccccc1 (configuration not stated) | 
33 | O=C(COc1ccccc1)NC(c1ccccc1Cl)c1cc(Br)c2cccnc2c1O (configuration not stated) | 
46 | O=C(COCc1ccccc1)NC(c1cccc(F)c1)c1cc(Cl)c2cccnc2c1O (configuration not stated) | half-life [1]: 24 min
55 | Cc1cc(C(NC(=O)COc2ccccc2)c2ccccc2Cl)c(O)c2ncccc12 (configuration not stated) | 
43 | O=C(COc1ccccc1)NC(c1ccccc1Cl)c1cc(Cl)c2cccnc2c1O (configuration not stated) | IC50 [2]: 2.4 µM; IC50 (Collagenase 3): > 67 µM; inhibition [3]: 50%
26 | N#Cc1ccccc1C(NC(=O)COc1ccccc1)c1cc(Cl)c2cccnc2c1O (configuration not stated) | 
16 | CN(CC(=O)NC(c1ccccc1Cl)c1cc(Cl)c2cccnc2c1O)Cc1ccccc1 (configuration not stated) | half-life [1]: 5 min
38 | O=C(COc1ccccc1)NC(c1ccccc1[N+](=O)[O-])c1cc(Cl)c2cccnc2c1O (configuration not stated) | half-life [1]: 5 min
20 | CN(CC(=O)NC(c1cccc([N+](=O)[O-])c1)c1cc(Cl)c2cccnc2c1O)Cc1ccccc1 (configuration not stated) | 
30 | Cc1ccc(C(NC(=O)CN(C)Cc2ccccc2)c2cc(Cl)c3cccnc3c2O)cc1 (configuration not stated) | half-life [1]: 16 min
41 | CN(CC(=O)NC(c1cccc(F)c1)c1cc(Cl)c2cccnc2c1O)c1ccccc1 (configuration not stated) | 
32 | CN(CC(=O)NC(c1cccc(F)c1)c1cc(Cl)c2cccnc2c1O)Cc1ccccc1 (configuration not stated) | half-life [1]: 16 min
35 | O=C(COc1ccccc1)NC(c1ccccc1Cl)c1cc([N+](=O)[O-])c2cccnc2c1O (configuration not stated) | 
20 | Cc1ccc(C(NC(=O)CN(C)c2ccccc2)c2cc(Cl)c3cccnc3c2O)cc1 (configuration not stated) | half-life [1]: 6 min
24 | O=C(COc1ccccc1)NC(c1ccccc1F)c1cc(Cl)c2cccnc2c1O (configuration not stated) | 
36 | O=C(CNCc1ccccc1)NC(c1ccccc1Cl)c1cc(Cl)c2cccnc2c1O (configuration not stated) | 
10 | Cc1ccccc1C(NC(=O)COc1ccccc1)c1cc(Cl)c2cccnc2c1O (configuration not stated) | 
32 | O=C(CNCc1ccccc1)NC(c1cccc(F)c1)c1cc(Cl)c2cccnc2c1O (configuration not stated) | 
